Source: the NIST ThermoML archive (doi:10.1016/j.jct.2016.06.007)

Assay: mn = molality of the nth substance listed, in mol/kg
Settings: Liquid, m1 = 7.377; for viscosity: Falling or rolling sphere viscometry; for mass density: Vibrating tube method

CN(CCO)CCO [N-methyldiethanolamine] + O
Settings	mass density [kg/m3]	viscosity [mPa·s]
313.15 K, 6.3 kPa	1031.4	4.23
328.15 K, 13.7 kPa	1021.6	2.82
343.15 K, 27.4 kPa	1009.7	1.83
